Results from patent US4410535A, “Aza-bicyclo-benzamide derivatives and pharmaceutical compositions and use thereof” (Beecham Group Limited, priority 1980, dated 1983).

What was measured:
Assay type in all cases: in vivo
Dopamine Receptor = assay: Dopamine receptor blocking activity in the CNS: inhibition of apomorphine induced climbing in the mouse; settings: s.c. (table footnote), apomorphine 1 mg/kg s.c. induced climbing
[1] = tested on: vomiting response to apomorphine HCl; assay: Anti-emetic activity in the dog (apomorphine HCl induced vomiting); settings: Canis lupus familiaris, sc, 30 min before apomorphine HCl 0.1 mg/kg s.c.
Method: I. Anti-emetic acitivity in the dog
Compounds were administered subcutaneously 30 minutes prior to administration of a standard dose of apomorphine HCl (0.1 mg/kg subcutaneously) and the vomiting response compared to that obtained when the same animals were dosed with apomorphine HCl and vehicle only.
(§1) The tests I and II shown above for anti-emetic and CNS activity respectively were used for the comparison testing of representative Compound 1 with 4-amino-5-chloro-2-methoxy-N-(3'β-[8'-benzyl]-8-azabicyclo[3.2.1]octyl)benzamide (A'). Compound A' was chosen because of the compounds specifically disclosed in European Patent Application No. 793029978 and U.S. Pat. No. 4,273,778 it has the best anti-emetic activity and is the structurally closest compound to compound 1. Other compounds of the Examples were also submitted to tests I and II.

[2] = Therapeutic ratio for anti-emetic activity based upon CNS effects (tests I and II); settings: relative to compound A'
Description: as §1

[3] = tested on: gastric motility inhibited by 6,7-ADTN; assay: Gastric motility testing in the rat: reversal of the inhibitory effect of 6,7-ADTN; settings: s.c., 10 minutes after 6,7-ADTN 1 mg/kg s.c.; conscious chronic gastric fistula rat
Method: III. Gastric Motility Testing in the rat
The compounds were tested for ability to reverse the inhibitory effect of 6,7-ADTN on gastric motility as recorded by an open tipped catheter in the conscious chronic gastric fistula rat. Administration of 1 mg/kg s.c. of 6,7-ADTN reduced basal gastric motor activity and this was reversed by the administration of 0.008 mg/kg s.c. of compound 1. administered 10 minutes after the 6,7-ADTN. […] For subcutaneous testing the compound was dissolved in water by the addition of tartaric acid (1/2 mole per mole of compound).

Row | SMILES | CNS activity (ED50) (Dopamine Receptor) [mg/kg] | ED50 [1] [mg/kg] | improvement of therapeutic ratio for anti-emetic activity based upon CNS effects, compared with compound A' [2] | dose reversing the 6,7-ADTN inhibition of gastric motor activity [3] [mg/kg]
1 | COc1cc(N)c(Cl)cc1C(=O)N[C@@H]1C[C@H]2CC[C@@H](C1)N2Cc1ccccc1 [Compound A', 4-amino-5-chloro-2-methoxy-N-(3'β-[8'-benzyl]-8-azabicyclo[3.2.1]octyl)benzamide, reference compound] | 0.0029 | 0.0005 | – | –
2 | CCS(=O)(=O)c1cc(C(=O)N[C@@H]2C[C@H]3CC[C@@H](C2)N3Cc2ccccc2)c(OC)cc1N [Compound 2, 4-Amino-5-ethylsulphonyl-2-methoxy N-[3-β-(8-benzyl-8azabicyclo{3,2,1}octyl)]benzamide] | 3.5 | 0.01 | – | –
3 | COc1cc(N)c(S(C)(=O)=O)cc1C(=O)N[C@@H]1C[C@H]2CC[C@@H](C1)N2Cc1ccccc1 [Compound 1, 4-Amino-2-methoxy-5-methylsulphonyl-N-[3-β-(8-benzyl-8-azabicyclo[3.2.1]octyl)]benzamide] | 3.5 | 0.002 | more than 300 times | 0.008
4 | COc1cc(N)c(S(C)(=O)=O)cc1C(=O)N[C@@H]1C[C@H]2CC[C@@H](C1)N2C [Compound 3, 4-Amino-2-methoxy-5-methylsulphonyl-N-[3β-(8-methyl-8-azabicyclo[3.2.1]octyl)]benzamide] | 80 | 0.5 | – | –
